Source: US8940768B2, “Antifungal triazole derivatives” (Daewoong Pharmaceutical Co., Ltd., priority 2010, dated 2015)

Tested on: Candida albicans
Assay: in vitro antifungal activity (MIC80), Candida albicans
Format: cell-based
Conditions: 80% growth inhibition vs negative control, RPMI 1640, read 24 hrs after application, Table 2, read-out: Antifungal Activity (MIC80) Candida albicans
Protocol: The compounds of the present invention were evaluated for inhibitory activity against yeast molds including Candida albicans, Candida glabrata, Candida krusei, Candida tropicalis, Candida parapsilosis, and Cryptococcus neoformans, and filamentous fungi including Aspergillus fumigatus, Trichophyton mentagrophytes (obtained from KCTC (Korean Collection for Type Cultures), and Trichophyton rubrum (obtained from KCCM (Korean Culture Center of Microorganisms). All the strains, but Trichophyton mentagrophytes and Trichophyton rubrum, were purchased from the ATCC (American Type Culture Collection).
Of the strains used in this test, Candida albicans, Candida glabrata, Candida krusei, Candida tropicalis, Candida parapsilosis, Trichophyton mentagrophytes and Trichophyton rubrum were inoculated into sabouraud dextrose agars (Difco, BD-0109), Cryptococcus neoformans into a yeast mold agar (YM agar, Difco, 271210), and Aspergillus fumigatus into a malt extract agar (Difco, 211220), before incubation at 35° C. for two to ten days.
From the agars on which the yeast molds were grown, single colonies were picked up, and each was sufficiently suspended in 5 mL of already prepared, 0.85% sterile saline. After correction of the absorbance to 0.108 at 530 nm, each of the suspensions was diluted to a ratio of 1:50 in an RPMI (Roswell park memorial institute) 1640 medium and then to a ratio of 1:20 to prepare an inoculum having a cell density of from 1.0×10^3 to 5.0×10^3CFU/mL. The cell density was adjusted into […]˜5.0×10^4 CFU/mL for Aspergillus fumigates and 0.4×10^4˜5.0×10^4 CFU/mL for both Trichophyton mentagrophytes and Trichophyton rubrum.
The antifungal agent samples were prepared by diluting the active compounds in an RPMI 1640 medium to a serial density of from 0.0156 to 32 μg/mL. In this context, dimethylsulfoxide (DMSO) was used as an excipient at a final concentration of 1% (v/v). The serial dilutions were aliquoted at a volume of 0.1 mL and applied to 0.1 mL of the aliquots of each inoculum, followed by incubation.
With the naked eyes, an observation was made of all of the yeast molds, but Cryptococcus neoformans 24 hrs after the application, Cryptococcus neoformans and Aspergillus fumigatus 48 hrs after the application, and Trichophyton mentagrophytes and Trichophyton rubrum five days after the application to examine whether the fungi grew or not. In addition, Alamarblue™ as used to determine the concentrations of the compounds of the present invention at which the growth of the microorganisms was 80% inhibited compared to that of the negative control. All experiments were performed in duplicate for each of the test concentration groups.

Question: With `C[C@@H](N(C)C1CCN(c2ccccc2)CC1)[C@](O)(Cn1cncn1)c1ccc(F)cc1F` [Example 155, (2R,3R)-2-(2,4-difluorophenyl)-3-(methyl(1-phenylpiperidin-4-yl)amino)-1-(1H-1,2,4-triazol-1-yl)butan-2-ol] as the compound, how does the MIC80 read?
Answer: Its MIC80 is ≤ 0.015 µg/mL.

Question: For `C[C@@H](N1CCC(Oc2ccc(C#N)cc2)CC1)[C@](O)(Cn1cncn1)c1ccc(F)cc1F` [Example 16, 4-((1-((2R,3R)-3-(2,4-difluorophenyl)-3-hydroxy-4-(1H-1,2,4-triazol-1-yl)butan-2-yl)piperidin-4-yl)oxy)benzonitrile], which MIC80 is on record?
Answer: Its MIC80 is ≤ 0.015 µg/mL.

Question: For `C[C@@H](OC1CCN(c2ccccc2)CC1)[C@](O)(Cn1cncn1)c1ccc(F)cc1F` [Example 90, (2R,3R)-2-(2,4-difluorophenyl)-3-((1-phenylpiperidin-4-yl)oxy)-1-(1H-1,2,4-triazol-1-yl)butan-2-ol], which MIC80 is on record?
Answer: The MIC80 was ≤ 0.015 µg/mL.

Question: How did the MIC80 turn out when `C[C@@H](N(C)C1CCN(c2ccc(Cl)cc2)CC1)[C@](O)(Cn1cncn1)c1ccc(F)cc1F` [Example 161, (2R,3R)-3-((1-(4-chlorophenyl)piperidin-4-yl)(methyl)amino)-2-(2,4-difluorophenyl)-1-(1H-1,2,4-triazol-1-yl)butan-2-ol] was run?
Answer: The MIC80 was ≤ 0.015 µg/mL.

Question: With `C[C@@H](N1CCC(Oc2ccccc2F)CC1)[C@](O)(Cn1cncn1)c1ccc(F)cc1F` [Example 3, (2R,3R)-2-(2,4-difluorophenyl)-3-(4-(2-fluorophenoxy)piperidin-1-yl)-1-(1H-1,2,4-triazol-1-yl)butan-2-ol] as the compound, how does the MIC80 read?
Answer: The MIC80 was ≤ 0.015 µg/mL.

Question: How did the MIC80 turn out when `C[C@@H](N1CCC(Nc2ccc(C(F)(F)F)cc2)CC1)[C@](O)(Cn1cncn1)c1ccc(F)cc1F` [Example 46, (2R,3R)-2-(2,4-difluorophenyl)-1-(1H-1,2,4-triazol-1-yl)-3-(4-((4-(trifluoromethyl)phenyl)amino)piperidin-1-yl)butan-2-ol] was run?
Answer: The MIC80 was ≤ 0.015 µg/mL.

Question: Which MIC80 does the source give for `C[C@@H](N1CCC(Nc2ncccn2)CC1)[C@](O)(Cn1cncn1)c1ccc(F)cc1F` [Example 62, (2R,3R)-2-(2,4-difluorophenyl)-3-(4-(pyrimidin-2-ylamino)piperidin-1-yl)-1-(1H-1,2,4-triazol-1-yl)butan-2-ol] here?
Answer: The MIC80 was ≤ 0.015 µg/mL.

Question: `C[C@@H](NC1CCN(c2ccc(C#N)cc2)CC1)[C@](O)(Cn1cncn1)c1ccc(F)cc1F` [Example 137, 4-(4-(((2R,3R)-3-(2,4-difluorophenyl)-3-hydroxy-4-(1H-1,2,4-triazol-1-yl)butan-2-yl)amino)piperidin-1-yl)benzonitrile] was tested. Which MIC80 did it give?
Answer: The MIC80 was ≤ 0.015 µg/mL.

Question: With `C[C@@H](OC1CCN(c2ncc(Br)cn2)CC1)[C@](O)(Cn1cncn1)c1ccc(F)cc1F` [Example 120, (2R,3R)-3-((1-(5-bromopyrimidin-2-yl)piperidin-4-yl)oxy)-2-(2,4-difluorophenyl)-1-(1H-1,2,4-triazol-1-yl)butan-2-ol] as the compound, how does the MIC80 read?
Answer: Its MIC80 is ≤ 0.015 µg/mL.

Question: For `C[C@@H](OC1CCN(c2ccc(Cl)cn2)CC1)[C@](O)(Cn1cncn1)c1ccc(F)cc1F` [Example 115, (2R,3R)-3-((1-(5-chloropyridin-2-yl)piperidin-4-yl)oxy)-2-(2,4-difluorophenyl)-1-(1H-1,2,4-triazol-1-yl)butan-2-ol], which MIC80 is on record?
Answer: The MIC80 was ≤ 0.015 µg/mL.

Question: For `C[C@@H](OC1CCN(c2ccc(C#N)cc2)CC1)[C@](O)(Cn1cncn1)c1ccc(F)cc1F` [Example 105, 4-(4-(((2R,3R)-3-(2,4-difluorophenyl)-3-hydroxy-4-(1H-1,2,4-triazol-1-yl)butan-2-yl)oxy)piperidin-1-yl)benzonitrile], which MIC80 is on record?
Answer: Its MIC80 is ≤ 0.015 µg/mL.

Question: For `C[C@@H](NC1CCN(c2ccccc2)CC1)[C@](O)(Cn1cncn1)c1ccc(F)cc1F` [Example 123, (2R,3R)-2-(2,4-difluorophenyl)-3-((1-phenylpiperidin-4-yl)amino)-1-(1H-1,2,4-triazol-1-yl)butan-2-ol], which MIC80 is on record?
Answer: Its MIC80 is ≤ 0.015 µg/mL.

Question: `C[C@@H](N1CCC(N(C)c2ccc(C(F)(F)F)cc2)CC1)[C@](O)(Cn1cncn1)c1ccc(F)cc1F` [Example 79, (2R,3R)-2-(2,4-difluorophenyl)-3-(4-(methyl(4-(trifluoromethyl)phenyl)amino)piperidin-1-yl)-1-(1H-1,2,4-triazol-1-yl)butan-2-ol] was tested. Which MIC80 did it give?
Answer: Its MIC80 is ≤ 0.015 µg/mL.

Question: With `C[C@@H](N1CCC(N(C)c2ccccc2)CC1)[C@](O)(Cn1cncn1)c1ccc(F)cc1F` [Example 67, (2R,3R)-2-(2,4-difluorophenyl)-3-(4-(methyl(phenyl)amino)piperidin-1-yl)-1-(1H-1,2,4-triazol-1-yl)butan-2-ol] as the compound, how does the MIC80 read?
Answer: Its MIC80 is ≤ 0.015 µg/mL.

Question: With `C[C@@H](OC1CCN(c2ccc(F)cc2)CC1)[C@](O)(Cn1cncn1)c1ccc(F)cc1F` [Example 93, (2R,3R)-2-(2,4-difluorophenyl)-3-((1-(4-fluorophenyl)piperidin-4-yl)oxy)-1-(1H-1,2,4-triazol-1-yl)butan-2-ol] as the compound, how does the MIC80 read?
Answer: Its MIC80 is ≤ 0.015 µg/mL.

Question: For `C[C@@H](N1CCC(Nc2ccc(C#N)cc2)CC1)[C@](O)(Cn1cncn1)c1ccc(F)cc1F` [Example 49, 4-((1-((2R,3R)-3-(2,4-difluorophenyl)-3-hydroxy-4-(1H-1,2,4-triazol-1-yl)butan-2-yl)piperidin-4-yl)amino)benzonitrile], which MIC80 is on record?
Answer: Its MIC80 is ≤ 0.015 µg/mL.

Question: For `C[C@@H](N(C)C1CCN(c2ccc(C#N)cc2)CC1)[C@](O)(Cn1cncn1)c1ccc(F)cc1F` [Example 170, 4-(4-(((2R,3R)-3-(2,4-difluorophenyl)-3-hydroxy-4-(1H-1,2,4-triazol-1-yl)butan-2-yl)(methyl)amino)piperidin-1-yl)benzonitrile], which MIC80 is on record?
Answer: Its MIC80 is ≤ 0.015 µg/mL.

Question: Which MIC80 does the source give for `C[C@@H](N1CCC(Oc2ccc(F)cn2)CC1)[C@](O)(Cn1cncn1)c1ccc(F)cc1F` [Example 25, (2R,3R)-2-(2,4-difluorophenyl)-3-(4-((5-fluoropyridin-2-yl)oxy)piperidin-1-yl)-1-(1H-1,2,4-triazol-1-yl)butan-2-ol] here?
Answer: The MIC80 was ≤ 0.015 µg/mL.

Question: `Cc1cc(C(F)(F)F)cnc1N1CCC(O[C@H](C)[C@](O)(Cn2cncn2)c2ccc(F)cc2F)CC1` [Example 116, (2R,3R)-2-(2,4-difluorophenyl)-3-((1-(3-methyl-5-(trifluoromethyl)pyridin-2-yl)piperidin-4-yl)oxy)-1-(1H-1,2,4-triazol-1-yl)butan-2-ol] was tested. Which MIC80 did it give?
Answer: Its MIC80 is ≤ 0.015 µg/mL.

Question: How did the MIC80 turn out when `C[C@@H](N(C)C1CCN(c2ccc(C(F)(F)F)cc2)CC1)[C@](O)(Cn1cncn1)c1ccc(F)cc1F` [Example 167, (2R,3R)-2-(2,4-difluorophenyl)-3-(methyl(1-(4-(trifluoromethyl)phenyl)piperidin-4-yl)amino)-1-(1H-1,2,4-triazol-1-yl)butan-2-ol] was run?
Answer: Its MIC80 is ≤ 0.015 µg/mL.

Question: For `C[C@@H](N(C)C1CCN(c2ccc(F)cc2)CC1)[C@](O)(Cn1cncn1)c1ccc(F)cc1F` [Example 158, (2R,3R)-2-(2,4-difluorophenyl)-3-((1-(4-fluorophenyl)piperidin-4-yl)(methyl)amino)-1-(1H-1,2,4-triazol-1-yl)butan-2-ol], which MIC80 is on record?
Answer: The MIC80 was ≤ 0.015 µg/mL.

Question: How did the MIC80 turn out when `C[C@@H](OC1CCN(c2ncccn2)CC1)[C@](O)(Cn1cncn1)c1ccc(F)cc1F` [Example 89, (2R,3R)-2-(2,4-difluorophenyl)-3-((1-(pyrimidin-2-yl)piperidin-4-yl)oxy)-1-(1H-1,2,4-triazol-1-yl)butan-2-ol] was run?
Answer: The MIC80 was ≤ 0.015 µg/mL.

Question: `C[C@@H](N1CCC(Oc2ncc(F)cn2)CC1)[C@](O)(Cn1cncn1)c1ccc(F)cc1F` [Example 30, (2R,3R)-2-(2,4-difluorophenyl)-3-(4-((5-fluoropyrimidin-2-yl)oxy)piperidin-1-yl)-1-(1H-1,2,4-triazol-1-yl)butan-2-ol] was tested. Which MIC80 did it give?
Answer: The MIC80 was ≤ 0.015 µg/mL.

Question: How did the MIC80 turn out when `C[C@@H](NC1CCN(c2ncccn2)CC1)[C@](O)(Cn1cncn1)c1ccc(F)cc1F` [Example 149, (2R,3R)-2-(2,4-difluorophenyl)-3-((1-(pyrimidin-2-yl)piperidin-4-yl)amino)-1-(1H-1,2,4-triazol-1-yl)butan-2-ol] was run?
Answer: Its MIC80 is ≤ 0.015 µg/mL.

Question: `C[C@@H](N1CCC(Nc2ncc(Br)cn2)CC1)[C@](O)(Cn1cncn1)c1ccc(F)cc1F` [Example 64, (2R,3R)-3-(4-((5-bromopyrimidin-2-yl)-amino)piperidin-1-yl)-2-(2,4-difluorophenyl)-1-(1H-1,2,4-triazol-1-yl)butan-2-ol] was tested. Which MIC80 did it give?
Answer: The MIC80 was ≤ 0.015 µg/mL.

Question: With `C[C@@H](N1CCC(N(C)c2ccc(C#N)cc2)CC1)[C@](O)(Cn1cncn1)c1ccc(F)cc1F` [Example 82, 4-((1-((2R,3R)-3-(2,4-difluorophenyl)-3-hydroxy-4-(1H-1,2,4-triazol-1-yl)butan-2-yl)piperidin-4-yl)(methyl)amino)benzonitrile] as the compound, how does the MIC80 read?
Answer: Its MIC80 is ≤ 0.015 µg/mL.

Question: `C[C@@H](NC1CCN(c2ccc(Cl)cn2)CC1)[C@](O)(Cn1cncn1)c1ccc(F)cc1F` [Example 147, (2R,3R)-3-((1-(5-chloropyridin-2-yl)piperidin-4-yl)amino)-2-(2,4-difluorophenyl)-1-(1H-1,2,4-triazol-1-yl)butan-2-ol] was tested. Which MIC80 did it give?
Answer: Its MIC80 is ≤ 0.015 µg/mL.
